Reference: ChEMBL document CHEMBL1828616, “Novel terpene based 1,4,2-dioxazoles: synthesis, characterization, molecular properties and screening against Entamoeba histolytica” (Eur J Med Chem, 2011)
pIC50: −log10 of the molar value.

What was measured:
[1] = system: Entamoeba histolytica; experiment: Antiamoebic activity against Entamoeba histolytica HM-1:IMSS by microdilution method; type: functional, organism-based
[2] = Octanol-water partition coefficient, log P of the compound; type: physicochemical
[3] = Cytotoxicity against rat H9c2 cells assessed as cell viability at 3.13 to 25 uM after 48 hrs by MTT assay; type: cell-based; details: read-out: Activity
[4] = system: H9c2; experiment: Cytotoxicity against rat H9c2 cells assessed as cell viability at 50 uM after 48 hrs by MTT assay; type: cell-based; details: h9c2, 48 h
[5] = system: H9c2; experiment: Cytotoxicity against rat H9c2 cells assessed as cell viability at 100 uM after 48 hrs by MTT assay; type: cell-based; details: h9c2, 48 h
[6] = (§1) Cytotoxicity against rat H9c2 cells assessed as cell viability at 200 uM after 48 hrs by MTT assay; type: cell-based; details: H9c2 cells, read-out: Activity
[7] = system: H9c2; experiment: Cytotoxicity against rat H9c2 cells assessed as cell viability after 48 hrs by MTT assay; type: cell-based; details: H9c2, 48 h
[8] = Selectivity index, ratio of IC50 for rat H9c2 cells to IC50 for Entamoeba histolytica HM-1:IMSS
[9] = system: H9c2; experiment: as §1; type: cell-based; details: h9c2, 48 h, 200 µM
[10] = in vitro; details: rat, H9c2 cells
Description: Cytotoxicity against rat H9c2 cells assessed as cell viability at 3.13 uM after 48 hrs by MTT assay

Compound: CC(C)=CCC/C(C)=C/C1=NOC(C)(c2ccccn2)O1 (configuration not stated)
- pIC50 [1]: 5.65
- logP [2]: 4.5

Compound: CC(C)=CCC/C(C)=C/C1=NOC(c2ccccn2)O1 (configuration not stated)
- pIC50 [1]: 5.53
- logP [2]: 3.96

Compound: CC(C)=CCC/C(C)=C/C1=NOC(C)(c2ccco2)O1 (configuration not stated)
- pIC50 [1]: 5.69
- logP [2]: 5.15

Compound: CC(C)=CCC/C(C)=C/C1=NOC(c2ccco2)O1 (configuration not stated)
- pIC50 [1]: 5.62
- logP [2]: 4.61

Compound: CC(C)=CCC/C(C)=C/C1=NOC(C)(c2cccs2)O1 (configuration not stated)
- pIC50 [1]: 5.52
- logP [2]: 5.67

Compound: CC(C)=CCC/C(C)=C/C1=NOC(c2cccs2)O1 (configuration not stated)
- pIC50 [1]: 5.54
- logP [2]: 5.13

Compound: CC(C)=CCC/C(C)=C/C1=NOC(c2ccc3c(c2)OCO3)O1 (configuration not stated)
- pIC50 [1]: 5.83
- logP [2]: 5.31

Compound: CC1(c2ccccn2)ON=C(c2ccc3c(c2)OCO3)O1 (configuration not stated)
- pIC50 [1]: 6.00
- viability at 48 h [3]: ≥ 82%
- Activity [4]: Toxic
- Activity [5]: Toxic
- viability at 48 h, 200 µM [6]: 88%
- pIC50 [7]: < 3.70
- Ratio IC50 [8]: >200
- logP [2]: 2.34

Compound: c1ccc(C2ON=C(c3ccc4c(c3)OCO4)O2)nc1 (configuration not stated)
- pIC50 [1]: 5.99
- viability at 48 h [3]: ≥ 82%
- Activity [4]: Toxic
- Activity [5]: Toxic
- Activity [9]: Toxic
- pIC50 [7]: 4.40
- Ratio IC50 [8]: 38.83
- logP [2]: 1.8

Compound: CC1(c2ccco2)ON=C(c2ccc3c(c2)OCO3)O1 (configuration not stated)
- pIC50 [1]: 5.96
- viability at 48 h [3]: ≥ 82%
- Activity [4]: Toxic
- Activity [5]: Toxic
- Activity [9]: Toxic
- pIC50 [7]: < 3.70
- Ratio IC50 [8]: >181.81
- logP [2]: 2.99

Compound: c1coc(C2ON=C(c3ccc4c(c3)OCO4)O2)c1 (configuration not stated)
- pIC50 [1]: 5.96
- viability at 48 h [3]: ≥ 82%
- Activity [4]: Toxic
- Activity [5]: Toxic
- Activity [9]: Toxic
- pIC50 [7]: < 3.70
- Ratio IC50 [8]: >183.48
- logP [2]: 2.45

Compound: CC1(c2cccs2)ON=C(c2ccc3c(c2)OCO3)O1 (configuration not stated)
- pIC50 [1]: 5.57
- logP [2]: 3.51

Compound: c1csc(C2ON=C(c3ccc4c(c3)OCO4)O2)c1 (configuration not stated)
- pIC50 [1]: 5.46
- logP [2]: 2.97

Compound: CC(C)=CCC/C(C)=C/C1ON=C(c2ccc3c(c2)OCO3)O1 (configuration not stated)
- pIC50 [1]: 5.86
- logP [2]: 5.44

Compound: CC(C)=CCC/C(C)=C/C1ON=C(c2ccccn2)O1 (configuration not stated)
- pIC50 [1]: 5.65
- logP [2]: 4.08

Compound: c1ccc(C2=NOC(c3ccc4c(c3)OCO4)O2)nc1 (configuration not stated)
- pIC50 [1]: 5.97
- viability at 48 h [3]: ≥ 82%
- Activity [4]: Toxic
- Activity [5]: Toxic
- Activity [9]: Toxic
- pIC50 [7]: 4.07
- Ratio IC50 [8]: >80.18
- logP [2]: 1.8

Compound: CC(C)=CCC/C(C)=C/C1ON=C(c2ccco2)O1 (configuration not stated)
- pIC50 [1]: 5.56
- logP [2]: 5.25

Compound: c1coc(C2=NOC(c3ccc4c(c3)OCO4)O2)c1 (configuration not stated)
- pIC50 [1]: 5.98
- viability at 48 h [3]: ≥ 82%
- Activity [4]: Toxic
- Activity [5]: Toxic
- Activity [9]: Toxic
- pIC50 [7]: 3.70
- Ratio IC50 [8]: 190.47
- logP [2]: 2.97

Compound: CC(C)=CCC/C(C)=C/C1ON=C(c2cccs2)O1 (configuration not stated)
- pIC50 [1]: 5.52
- logP [2]: 4.74

Compound: c1csc(C2=NOC(c3ccc4c(c3)OCO4)O2)c1 (configuration not stated)
- pIC50 [1]: 5.61
- logP [2]: 2.45

Compound: Cc1ncc([N+](=O)[O-])n1CCO [METRONIDAZOLE]
- Activity [4]: Toxic
- Activity [5]: Toxic
- Activity [9]: Toxic
- pIC50 [7]: < 3.70
- Ratio IC50 [8]: >137.9
- viability at 48 h, 3.13 µM [10]: 100%
